Reference: PMC8280112, “Substrate reduction therapy for Krabbe disease and metachromatic leukodystrophy using a novel ceramide galactosyltransferase inhibitor” (Scientific Reports, 2021)

Columns and labels:
Format in all cases: biochemical
[1] = molecular target: T1, Recombinant human galactosylceramidase (GALC) (Homo sapiens, UniProt P54803); assay: Galactosylceramidase assay
T1 construct: purchased R&D Systems
T1 sequence (P54803 43-685): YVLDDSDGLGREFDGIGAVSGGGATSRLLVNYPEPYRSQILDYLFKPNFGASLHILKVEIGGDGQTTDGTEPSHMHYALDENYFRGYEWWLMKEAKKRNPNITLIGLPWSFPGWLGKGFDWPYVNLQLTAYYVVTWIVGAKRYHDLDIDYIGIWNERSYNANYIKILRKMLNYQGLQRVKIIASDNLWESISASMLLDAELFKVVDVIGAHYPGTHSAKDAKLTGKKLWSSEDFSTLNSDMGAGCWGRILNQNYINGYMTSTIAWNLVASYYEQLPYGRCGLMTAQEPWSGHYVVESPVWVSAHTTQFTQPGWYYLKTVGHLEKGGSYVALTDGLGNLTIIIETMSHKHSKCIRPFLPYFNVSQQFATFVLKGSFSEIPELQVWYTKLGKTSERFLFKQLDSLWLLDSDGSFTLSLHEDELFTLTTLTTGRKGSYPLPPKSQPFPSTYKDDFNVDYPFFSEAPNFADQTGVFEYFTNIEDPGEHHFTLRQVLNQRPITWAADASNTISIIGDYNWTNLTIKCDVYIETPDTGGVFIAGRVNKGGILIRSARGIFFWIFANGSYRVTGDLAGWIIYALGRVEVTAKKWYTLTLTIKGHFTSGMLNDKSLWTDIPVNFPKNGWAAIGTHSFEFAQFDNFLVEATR
Excerpt: Recombinant human galactosylceramidase (R&D Systems) activity was monitored using the artificial fluorescent substrate 4-methylumbelliferyl-β-D-galactopyranoside (Sigma) using the assay conditions described on the enzyme product datasheet.

[2] = molecular target: T2, Cerebroside sulfotransferase (CST) (Homo sapiens, UniProt Q99999); assay: Cerebroside sulfotransferase assay; details: lysate of CHO cells expressing GAL3ST1
T2 construct: made in house; host or cells: CHO cells stably expressing GAL3ST1 cDNA; MPER lysate
T2 sequence (Q99999 1-423): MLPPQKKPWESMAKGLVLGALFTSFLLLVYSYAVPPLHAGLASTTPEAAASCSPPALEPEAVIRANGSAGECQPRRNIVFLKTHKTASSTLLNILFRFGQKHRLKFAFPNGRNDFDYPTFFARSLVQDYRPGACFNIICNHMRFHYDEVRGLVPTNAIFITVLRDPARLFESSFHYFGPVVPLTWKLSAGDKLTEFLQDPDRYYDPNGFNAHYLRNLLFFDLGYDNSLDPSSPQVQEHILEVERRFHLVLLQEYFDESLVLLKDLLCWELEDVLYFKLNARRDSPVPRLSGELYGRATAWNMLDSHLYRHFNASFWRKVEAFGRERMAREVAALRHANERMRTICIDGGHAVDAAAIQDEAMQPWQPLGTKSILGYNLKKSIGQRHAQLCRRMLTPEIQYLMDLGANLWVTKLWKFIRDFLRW
Protocol: A 50 µL reaction consisting of 4 µg MPER lysate prepared from CHO cells stably expressing GAL3ST1 cDNA construct (made by BioMarin), 3 µM N-dodecanoyl-NBD-galactosylceramide […] 10 µM PAPS (Sigma) added as substrate (in DMSO/Tween 80), reaction buffer (100 mM Tris/HCl (pH 7.0), 2.5 mM ATP, 20 mM MgCl2), and test compound. The reaction was incubated at 37 ℃ for 2 h then stopped with 100 µL of 3:1 methanol:acetonitrile (containing 500 nM NBD-C6-OH ceramide as an IS). After 1 h shaking, 150 µL 1:2 H2O:ACN was added, mixed, and centrifuged 4000 rpm for 30 min at RT. Supernatant was transferred for LC–MS analysis using the same conditions used for the CGT cellular assay.

[3] = molecular target: T3, rhARSA (Homo sapiens, UniProt P15289); assay: Arylsulfatase A assay; details: read-out: ARSA IC50
T3 construct: purchased R&D systems
T3 sequence (P15289 19-507): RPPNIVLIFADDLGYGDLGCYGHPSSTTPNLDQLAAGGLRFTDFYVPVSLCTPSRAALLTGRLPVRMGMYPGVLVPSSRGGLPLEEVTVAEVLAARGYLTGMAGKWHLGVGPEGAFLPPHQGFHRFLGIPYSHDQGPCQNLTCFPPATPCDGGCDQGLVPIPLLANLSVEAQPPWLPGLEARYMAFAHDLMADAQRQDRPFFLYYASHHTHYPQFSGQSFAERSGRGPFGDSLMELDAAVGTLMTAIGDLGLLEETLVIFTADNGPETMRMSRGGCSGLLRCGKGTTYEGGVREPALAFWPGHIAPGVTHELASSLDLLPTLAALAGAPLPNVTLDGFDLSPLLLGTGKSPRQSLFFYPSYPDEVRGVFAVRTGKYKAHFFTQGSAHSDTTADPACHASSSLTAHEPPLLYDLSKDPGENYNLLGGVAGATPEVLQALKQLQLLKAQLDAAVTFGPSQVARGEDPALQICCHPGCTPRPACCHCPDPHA
Protocol: The ARSA assay was modified from a previously reported method. The reaction mixture contained 40 ng of rhARSA (R&D systems), various concentrations of inhibitor, and 6.2 µM N-octadecanoyl-d3-sulfatide substrate in reaction buffer (0.08 M sodium acetate at pH 4.5, 2.08 g/L sodium taurodeoxycholate, 33 mM MnCl2, 0.4% DMSO) and was incubated for 16 h at 37 °C. The reaction was terminated with equal volume MeOH:ethyl acetate (EA). N-octadecanoyl-d35-psychosine (Matreya) was added as the IS, together with 400 µL EA and 200 µL H2O. After centrifugation, 200 µL of the EA layer was dried under a stream of N2 and resuspended in 100 µL MeOH before quantifying the N-octadecanoyl-d3-galactosylceramide product using a reported UPLC–MS/MS method.

Measured: IC50

C[C@H]1N(c2ccc(Br)cc2)C(=O)N(c2ccc(Br)cc2)C1(O)c1cccc(OC(F)(F)F)c1 (stereo partly drawn) [S202]
> 50 µM: all assays above
